Measurements: US8163803B2 (Fundação Oswaldo Cruz—FIOCRUZ, priority 2004, dated 2012)

How the values were obtained:
[1] = tested on: isolated ileum of an experimental animal; assay: Anaphylactic contraction of isolated ileum induced by antigen (ovoalbumin); details: antigen (10 μg/ml), average ±SEM, at least 3 animals; read-out: Stimulation with antigen IC50
Procedure: (§1) Female and male experimental animals were used, weighing between 300 and 400 g, they came from Oswaldo Cruz Foundation's Center of Laboratory Animal Raising. The procedures involving the animals were examined and approved by Oswaldo Cruz Foundation's Committee of Animal Ethics (CEUA-FIOCRUZ, Licenca no. 00085-02). The animals were sensitized through a subcutanous injection with a mixture of 50 μg ovoalbumin and 5 mg Al(OH)3. From fourteen to thirty days after the sensitization, the experimental, animal was sacrificed in a chamber of carbonic gas to have its abdomen open and the location of the ileocecal valve. At this point, the intestine was sectioned and a segment of the small intestine, about 20 cm (equivalent to the ileum) was carefully removed and internally washed with a warmed solution (37° C.) of Tyrode (Composition in mM) (NaCl 137; KCl 2.7; NaH2PO4 0.42; NaHCO3 11.9; MgCl2 0.5; CaCl2 1.8; glucose 5.6) to remove the fecal content. […].
(§2) About 3-cm ileum fragments were vertically mounted in 10 ml glass cuvettes, immersed in Tyrode's solution at 37° C., aerated with carbogen (O2, 95% and CO2, 5%) and supplemented with atropine according to the standard procedure. The tissue had one of its ends tied to a rod while the other end was coupled with a transductor after the transference from the rod to the cuvette. The contractions were isotonically registered (basal tension of 1 g) with the support of a transductor of displacement-force connected to a computerized system to capture data. After a 30 minute period of balance, each segment was repeatedly stimulated by histamine (1 μM) until response stabilization. To induce anaphylatic contraction, ileum segments from sensitized experimental animals were stimulated by ovoalbumin (10 μg/ml). […]. The results were presented as a percentage of inhibition calculated in relation to the contractive effect obtained from stimulated and non-treated preparations.
(§3) Concentration-response data were adjusted through non-linear regression curves with the assistence of a graphics software (GraphPad Prism, USA). The concentration of an antagonist needed to inhibit the contractive response to inhibit the contractive response after stimulation by histamine or antigen at 50% (IC50) was used to compare the anti-spasmodic potency. The values expressed as an average ± standard error of the mean and statistically analysed through the test of analysis variance (ANOVA), followed by the Newman-Keuls-Student test.

[2] = tested on: isolated ileum of an experimental animal; assay: Contraction of isolated ileum induced by histamine; details: histamine (5 μM), average ±SEM, at least 3 animals; read-out: Stimulation with histamine IC50
Procedure: as §1, §2, §3

[3] = tested on: experimental animal trachea; assay: Relaxation of trachea pre-contracted by anaphylactic stimulation (ovoalbumin); details: pre-contracted with ovoalbumin (20 μg/ml), average±SEM, at least 3 animals; read-out: IC50, concentration necessary to relax in 50% the anaphylatic spasm of trachea
Procedure: Female and male experimental animals were used, weighing between 300 and 400 g, they came from Oswaldo Cruz Foundation's Center of Laboratory Animal Raising. The procedures involving the animals were examined and approved by Oswaldo Cruz Foundation's Committee of Animal Ethics (CEUA-FIOCRUZ, License number 00085-02). The animals were sensitized through a subcutaneous injection with a mixture of 50 μg ovoalbumin and 5 mg Al(OH)3. Fourteen to thirty days after the sensitization, the experimental animal was sacrificed in a chamber of carbonic gas to have its trachea removed. The trachea was transferred to a Petri dish containing Krebs solution (composition in mM) (NaCl-119; […] NaHCO3-25; […] The total segment was divided into fragments of about 3 to 4 rings that were sectioned at the extreme ending, the muscular part of the trachea. Each fragment had one of its ends tied to a rod while the other end was connected to an isometric transductor (U Basile, Italy) after the transference from the rod to a 10 ml glass cuvette. […] The contractions were registered with the […] of a computerized system of data capture (Letica, Spain). […] The results were shown as a percentage of relaxation in relation to the plateau of the anaphylatic pre-contraction. Concentration-response data were adjusted through non-linear regression curves with the […] of a graphics software (GraphPad Prism, USA). […] The values were expressed as an average± standard error of the mean and statistically analysed through the test of analysis variance (ANOVA), followed by the Newman-Keuls-Student test.

[4] = tested on: dorsal subcutaneous tissue of rats; assay: Anaphylactic release of histamine by fragments of dorsal subcutaneous tissue; design: species or system Wistar rats; details: ovoalbumin (300 μg/ml); for IC50: 60 min pre-treatment, read-out: IC50, inhibition of histamine release caused by anaphylatic stimulus
Procedure: Female and male Wistar rats were used, weighing between 180 and 200 g, they came from Oswaldo Cruz Foundation's Center of Laboratory Animal Raising. The procedures involving the animals were examined and approved by Oswaldo Cruz Foundation's Committee of Animal Ethics (CEUA-FIOCRUZ, Port. 00085-02). The rats were sensitized with a subcutaneous injection containing a mixture of 50 μg ovalbumina plus 5 mg Al(OH)3. Fourteen days after the sensitization the animals were sacrificed in a chamber of CO2, to have their dorsal hypodermis removed which was fragmented into smaller segments of about 3 mm in a Petri dish containing PBS. The fragments were individually transferred to a dish with 48 pools containing 500 μl of Hanks with Ca^++ and Mg^++.
Five experimental groups were studied in quadruplicates:
I. Saline group, negative control, pools where the tissue was neither treated nor stimulated;
II. Ovoalbumin group, positive control, pools where the tissue was not treated but it was stimulated by ovoalbumin (300 μg/ml);
III. JM24-1 group, pools where the tissue was previously treated with JM24-1 before the stimulation with ovoalbumin (300 μg/ml);
IV. JM25-1 group, pools where the tissue was previously treated with JM25-1 before the stimulation with ovoalbumin (300 μg/ml);
V. JMF2-1 group, pools where the tissue was previously treated with JMF2-1 before the stimulation with ovoalbumin (300 μg/ml).
Treated and non-treated pools were kept at 37° C. in a metabolic incubator (atmosphere containing 95% O2 and 5% CO2) for 60 minutes before the antigenic challenge. After the addition of ovoalbumin (300 μg/ml) all the pools were incubated again in a metabolic oven for more than 60 minutes. After removal of tissue for drying and weighing, the culture medium was collected and acidified with perchloric acid 0.4 N being, after centrifugation 150×g for 10 min. stocked at −20° C. until the moment of fluorimetric quantifying of histamine, according to the previous work. The values were shown like nanograms of released histamine by mg of tissue (dry weight).

Swiss 44 mice = assay: Convulsivant activity after intraperitoneal injection; format: in vivo
Procedure: Female and male Swiss 44 mice were used, weighing between 25 and 30 g, they came from Oswaldo Cruz Foundation's Center of Laboratory Animal Raising. The procedures involving the animals were examined and approved by Oswaldo Cruz Foundation's Committee of Animal Ethics (CEUA-FIOCRUZ, Act 00085-02). […] For each molecule, the necessary dose to induce a convulsive clinical Figure in 50% of the animals (DE50) was determined by linear regressive curves interpoled (GraphPad Prim, version 3.03).

[5] = intraperitoneal, 15 minutes after injection, 10 mice per dose

Row | SMILES | IC50 [1] [µM] | IC50 [2] [µM] | IC50 [3] [µM] | IC50 [4] [µM] | percentage of injected animals led to convulsion (Swiss 44 mice; 80 mg/Kg intraperitoneal) [%] | DE50, dose to induce convulsion in 50% of the animals (Swiss 44 mice; [5]) [mg/kg] | inhibition of anaphylactic histamine release, result in words [4] | DE50, dose to induce convulsion in 50% of the animals (Swiss 44 mice; mouse, in vivo, ip) [mg/kg] | convulsivant activity compared with lidocaine (Swiss 44 mice; 40-500 mg/Kg intraperitoneal)
1 | CCN(CC)CC(=O)Nc1c(C)cccc1C [Lidocaine, 1-(2-(dyethylamine)N-dymethylfenyl)-acetamide, reference compound] | 1430 ± 90 | 1410 ± 120 | 1350 ± 20 | 4.5 | 100 | 62 |  |  | 
2 | CCN(CC)CC(=O)Nc1cccc(C)c1C [JM23-1, 2-dyethylamine-2′,3′-acetoxylidide] | 330 | 380 ± 60 | 220 ± 60 |  |  |  | inactive | 154 | 
3 | CCN(CC)CC(=O)Nc1ccc(C)cc1C [JM24-1, 2-dyethylamine-2′,4′-acetoxylidide] | 190 ± 40 | 310 ± 60 | 30 | 6.46 |  | 230 | concentrations comparable to that of lidocaine |  | noticeably inferior
